In patent publication US10550080B2 (BRISTOL-MYERS SQUIBB COMPANY, priority 2016, dated 2020):

What was measured:
NaV1.5 = NaV1.5 (Homo sapiens (Human), UniProt Q14524); assay: Automated electrophysiology, IonWorks Barracuda population patch clamp, NaV1.5 current (inactivated-state protocol); assay type: cell-based; conditions: HEK 293 cells expressing NaV1.5; read-out: NaV1.5 Barra IC50
Protocol: (§1) Automated Electrophysiology: Ion Works Barracuda population patch clamp (PPC). PPC measurements were performed using an IonWorks Barracuda instrument (Molecular Devices Corporation, Union City, Calif.) using either PatchPlate™ PPC substrates (Molecular Devices Corporation) with 64 apertures per well. The ability to average currents from 64 recordings from each well greatly improves data consistency and recording success rates in the measurement of NaV1.7 mediated ionic currents. Calculated leak current was digitally subtracted from the total cell NaV1.7 current for each sample point acquired.
(§2) NaV1.7 currents were elicited by a voltage clamp protocol designed to bias the NaV1.7 channels to their inactivated state as follows. From holding potential of −60 mV cells were briefly hyperpolarized to −100 mV for 1.25 sec, then stepped to −20 mV for 20 sec to inactivate the channels. This was followed by a relatively brief hyperpolarization to −100 mv for 300 ms, then a 20 msec test pulse to −20 mV to elicit the NaV1.7 current used to measure the pharmacology of all test compounds. Compounds were incubated for 600 sec between the pre- and post-compound reads. The external recording solution used was (in mM) 137 NaCl, 4 KCl, 1 MgCl2, 1.8 CaCl2, 10 Hepes, 10 glucose, pH to 7.4 with NaOH, and the internal solution used was (in mM) 100 K-gluconate, 40 KCl, 3.2 zMgCl2, 5 EGTA, 10 HEPES pH to 7.2 with KOH. The same solutions were used to record NaV1.5 currents, with the following voltage clamp protocol. NaV1.5 currents were elicited by a voltage clamp protocol designed to bias the NaV1.5 channels to their inactivated state as follows. From holding potential of −40 mV cells were briefly hyperpolarized to −100 mV for 300 ms, then stepped to −10 mV for 20 sec to inactivate the channels. This was followed by a relatively brief hyperpolarization to −100 mv for 30 ms, then a 20 msec test pulse to −10 mV to elicit the NaV1.5 current used to measure the pharmacology of all test compounds.
(§3) HEK 293 cells expressing NaV1.7 and NaV1.5 channels, were used (Essen Biosciences, Ann Arbor, Mich.). Cells were cultured in T-175 flasks and passaged every 2 to 3 days at 1:3 to 1:6 seeding density dilutions. Cells were grown to 70% to 90% confluence in a flask and removed from the incubator (37° C., 5% CO2) 1 to 3 days after plating. Growth medium was aspirated from the culture flasks. Cells were gently rinsed with 10 ml of PBS (Catalog number: 14190144, Gibco) to remove residual media. Next a total of 2 mL TrypLE (Gibco) solution was added, and the flasks containing cells were sat for 3 min at RT, after which, the cells became visibly rounded and were easily dislodged from the bottom of the flask with a few brief taps on a solid surface. A total of 8 mL of media was added to the flask to inactivate the TrypLE, and the mixture was centrifuged at 910 rpm for 4 min. The cell supernatant was decanted, and the cell pellets were resuspended in 5-6 mL of external solution followed by gentle triturations using a 10 ml pipette, and transferred to a 15 ml conical tube and immediately brought to the IW Barracuda instrument.
(§4) Peak membrane currents were analyzed with IW Barracuda software and exported to Excel for further analysis. Concentration response curve fitting was performed with BMS in-house software. IC50 values were obtained by fits of the Hill equation to the average percent inhibition data plotted versus compound concentration. […] Results are reported in Table 1 (NaV1.7 Barra IC50 in nM and NaV1.5 Barra IC50 in nM).

NaV1.7 = NaV1.7 (Homo sapiens (Human), UniProt Q15858); assay: Automated electrophysiology, IonWorks Barracuda population patch clamp, NaV1.7 current (inactivated-state protocol); assay type: cell-based; conditions: HEK 293 cells expressing NaV1.7; 600 sec compound incubation; read-out: NaV1.7 Barra IC50
NaV1.7, sequence (Q15858 whole entry): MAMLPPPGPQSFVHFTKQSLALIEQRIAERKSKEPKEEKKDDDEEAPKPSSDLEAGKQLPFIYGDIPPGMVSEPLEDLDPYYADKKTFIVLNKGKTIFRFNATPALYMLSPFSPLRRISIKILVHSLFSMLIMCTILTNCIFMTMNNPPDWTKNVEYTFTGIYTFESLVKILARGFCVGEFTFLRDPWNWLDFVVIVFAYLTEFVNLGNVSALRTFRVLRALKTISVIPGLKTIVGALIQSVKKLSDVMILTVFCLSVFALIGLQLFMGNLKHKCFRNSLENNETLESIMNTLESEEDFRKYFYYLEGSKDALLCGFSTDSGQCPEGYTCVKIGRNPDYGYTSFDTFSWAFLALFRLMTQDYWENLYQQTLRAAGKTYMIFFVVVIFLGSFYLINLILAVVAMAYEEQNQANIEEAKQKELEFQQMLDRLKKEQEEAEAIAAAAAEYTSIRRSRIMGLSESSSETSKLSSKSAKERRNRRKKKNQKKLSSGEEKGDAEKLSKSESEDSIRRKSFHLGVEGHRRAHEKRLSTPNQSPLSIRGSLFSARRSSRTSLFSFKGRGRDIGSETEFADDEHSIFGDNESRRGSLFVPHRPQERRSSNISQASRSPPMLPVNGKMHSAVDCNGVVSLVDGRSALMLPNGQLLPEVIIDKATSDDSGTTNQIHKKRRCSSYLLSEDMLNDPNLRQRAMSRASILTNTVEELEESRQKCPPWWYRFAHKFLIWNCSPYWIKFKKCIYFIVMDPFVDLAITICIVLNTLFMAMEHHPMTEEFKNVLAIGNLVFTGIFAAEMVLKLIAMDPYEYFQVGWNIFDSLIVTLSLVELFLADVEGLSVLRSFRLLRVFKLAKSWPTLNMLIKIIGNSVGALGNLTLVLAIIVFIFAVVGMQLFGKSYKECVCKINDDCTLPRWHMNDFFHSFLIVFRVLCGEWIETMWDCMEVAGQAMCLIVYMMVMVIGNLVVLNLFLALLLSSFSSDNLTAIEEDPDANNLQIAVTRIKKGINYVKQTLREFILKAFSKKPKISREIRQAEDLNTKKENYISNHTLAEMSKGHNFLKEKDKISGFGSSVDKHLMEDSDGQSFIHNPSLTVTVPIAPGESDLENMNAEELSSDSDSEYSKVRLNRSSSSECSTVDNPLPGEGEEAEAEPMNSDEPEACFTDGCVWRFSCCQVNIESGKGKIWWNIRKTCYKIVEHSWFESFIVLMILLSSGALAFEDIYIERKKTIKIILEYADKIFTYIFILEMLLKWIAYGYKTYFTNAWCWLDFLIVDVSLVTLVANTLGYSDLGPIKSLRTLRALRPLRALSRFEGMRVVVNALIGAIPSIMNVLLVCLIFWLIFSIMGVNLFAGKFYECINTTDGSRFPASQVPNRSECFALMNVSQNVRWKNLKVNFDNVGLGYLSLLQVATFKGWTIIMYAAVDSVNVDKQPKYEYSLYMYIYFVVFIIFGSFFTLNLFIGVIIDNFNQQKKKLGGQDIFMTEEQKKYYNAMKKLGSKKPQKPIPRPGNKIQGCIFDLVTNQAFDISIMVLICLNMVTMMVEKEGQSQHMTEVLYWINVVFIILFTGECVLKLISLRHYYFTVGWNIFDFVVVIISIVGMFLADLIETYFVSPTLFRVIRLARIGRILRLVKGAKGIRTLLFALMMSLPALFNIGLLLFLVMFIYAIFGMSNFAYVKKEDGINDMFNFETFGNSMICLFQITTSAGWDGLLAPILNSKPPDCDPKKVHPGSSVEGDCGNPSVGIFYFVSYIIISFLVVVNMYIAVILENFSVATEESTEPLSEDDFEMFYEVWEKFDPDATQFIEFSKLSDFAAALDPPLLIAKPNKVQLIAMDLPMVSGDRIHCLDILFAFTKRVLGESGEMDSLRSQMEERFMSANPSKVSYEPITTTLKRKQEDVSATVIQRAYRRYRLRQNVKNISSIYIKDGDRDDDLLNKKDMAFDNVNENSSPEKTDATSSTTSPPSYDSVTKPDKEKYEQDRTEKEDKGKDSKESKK
Protocol: as §1, §2, §3, §4

hNaV1.7 = hNaV1.7 (Homo sapiens (Human), UniProt Q15858); assay: Ligand Binding Assay (LBA), radioligand displacement on hNaV1.7 HEK293 cell membranes; conditions: 0.5 nM [3H] radioligand, 24 hours at room temperature; read-out: NaV1.7 LBA IC50
hNaV1.7, sequence (Q15858 whole entry): as above
Protocol: Ligand Binding Assay (LBA): hNaV1.7 binding affinities were determined with a filtration binding assay using purified membranes from HEK293 cells stably expressing hNaV1.7. HEK293 cells from a 10-stack cell culture flask (approximately 10^10 cells) were dissociated, frozen, and stored at −80° C. To prepare membranes, the frozen cell pellet was thawed and suspended in 6 ml hypotonic lysis buffer (50 mM HEPES, 0.1% mammalian protease inhibitor cocktail). 1 ml of resuspended cells was added to an additional 6 ml of lysis buffer and homogenized with 30 strokes of a tight pestle in a glass homogenizer. Homogenate was centrifuged at 1000×g for 10 minutes at 4° C. and the resulting supernatant was further centrifuged at 38,500×g for 60 minutes at 4° C. The resulting pellet was resuspended in binding buffer (50 mM HEPES, 130 mM NaCl, 5.4 mM KCl, 0.8 mM MgCl2, 5 mM glucose, pH 7.4) and needle homogenized with a 25 gauge needle. Protein concentration was determined with a BCA protein assay. Purified membranes were aliquoted, flash frozen in an ethyl alcohol dry ice bath, and stored at −80° C. To measure displacement of a radiolabeled ligand, 50 μg of purified hNaV1.7 HEK cell membranes were incubated with test compounds (eight concentrations, in duplicate) and 0.5 nM [3H] labeled radioligand in a 96 well plate for 24 hours at room temperature on a shaker. The total binding reaction volume was 250 μl, consisting of 200 μl purified hNaV1.7 HEK cell membranes, 25 μl test compound, and 25 μl radioligand. Non-specific binding was defined by 20 μM of a reference hNaV1.7 inhibitor. Binding reactions were terminated by filtration through GF/B filters presoaked in 0.5% polyethyleneamine. Filters were washed 5 times with 2 ml each of 4′C wash buffer (50 mM Tris-HCl, pH 7.4 at 4° C.). Bound radioactivity captured on the filters was counted on a liquid scintillation counter. Specific binding, expressed as % inhibition, was fit with Graphpad Prism software to determine binding IC50 values. Results are reported in Table 1 (NaV1.7 LBA IC50 in nM).

NaV1.5, sequence (Q14524 whole entry): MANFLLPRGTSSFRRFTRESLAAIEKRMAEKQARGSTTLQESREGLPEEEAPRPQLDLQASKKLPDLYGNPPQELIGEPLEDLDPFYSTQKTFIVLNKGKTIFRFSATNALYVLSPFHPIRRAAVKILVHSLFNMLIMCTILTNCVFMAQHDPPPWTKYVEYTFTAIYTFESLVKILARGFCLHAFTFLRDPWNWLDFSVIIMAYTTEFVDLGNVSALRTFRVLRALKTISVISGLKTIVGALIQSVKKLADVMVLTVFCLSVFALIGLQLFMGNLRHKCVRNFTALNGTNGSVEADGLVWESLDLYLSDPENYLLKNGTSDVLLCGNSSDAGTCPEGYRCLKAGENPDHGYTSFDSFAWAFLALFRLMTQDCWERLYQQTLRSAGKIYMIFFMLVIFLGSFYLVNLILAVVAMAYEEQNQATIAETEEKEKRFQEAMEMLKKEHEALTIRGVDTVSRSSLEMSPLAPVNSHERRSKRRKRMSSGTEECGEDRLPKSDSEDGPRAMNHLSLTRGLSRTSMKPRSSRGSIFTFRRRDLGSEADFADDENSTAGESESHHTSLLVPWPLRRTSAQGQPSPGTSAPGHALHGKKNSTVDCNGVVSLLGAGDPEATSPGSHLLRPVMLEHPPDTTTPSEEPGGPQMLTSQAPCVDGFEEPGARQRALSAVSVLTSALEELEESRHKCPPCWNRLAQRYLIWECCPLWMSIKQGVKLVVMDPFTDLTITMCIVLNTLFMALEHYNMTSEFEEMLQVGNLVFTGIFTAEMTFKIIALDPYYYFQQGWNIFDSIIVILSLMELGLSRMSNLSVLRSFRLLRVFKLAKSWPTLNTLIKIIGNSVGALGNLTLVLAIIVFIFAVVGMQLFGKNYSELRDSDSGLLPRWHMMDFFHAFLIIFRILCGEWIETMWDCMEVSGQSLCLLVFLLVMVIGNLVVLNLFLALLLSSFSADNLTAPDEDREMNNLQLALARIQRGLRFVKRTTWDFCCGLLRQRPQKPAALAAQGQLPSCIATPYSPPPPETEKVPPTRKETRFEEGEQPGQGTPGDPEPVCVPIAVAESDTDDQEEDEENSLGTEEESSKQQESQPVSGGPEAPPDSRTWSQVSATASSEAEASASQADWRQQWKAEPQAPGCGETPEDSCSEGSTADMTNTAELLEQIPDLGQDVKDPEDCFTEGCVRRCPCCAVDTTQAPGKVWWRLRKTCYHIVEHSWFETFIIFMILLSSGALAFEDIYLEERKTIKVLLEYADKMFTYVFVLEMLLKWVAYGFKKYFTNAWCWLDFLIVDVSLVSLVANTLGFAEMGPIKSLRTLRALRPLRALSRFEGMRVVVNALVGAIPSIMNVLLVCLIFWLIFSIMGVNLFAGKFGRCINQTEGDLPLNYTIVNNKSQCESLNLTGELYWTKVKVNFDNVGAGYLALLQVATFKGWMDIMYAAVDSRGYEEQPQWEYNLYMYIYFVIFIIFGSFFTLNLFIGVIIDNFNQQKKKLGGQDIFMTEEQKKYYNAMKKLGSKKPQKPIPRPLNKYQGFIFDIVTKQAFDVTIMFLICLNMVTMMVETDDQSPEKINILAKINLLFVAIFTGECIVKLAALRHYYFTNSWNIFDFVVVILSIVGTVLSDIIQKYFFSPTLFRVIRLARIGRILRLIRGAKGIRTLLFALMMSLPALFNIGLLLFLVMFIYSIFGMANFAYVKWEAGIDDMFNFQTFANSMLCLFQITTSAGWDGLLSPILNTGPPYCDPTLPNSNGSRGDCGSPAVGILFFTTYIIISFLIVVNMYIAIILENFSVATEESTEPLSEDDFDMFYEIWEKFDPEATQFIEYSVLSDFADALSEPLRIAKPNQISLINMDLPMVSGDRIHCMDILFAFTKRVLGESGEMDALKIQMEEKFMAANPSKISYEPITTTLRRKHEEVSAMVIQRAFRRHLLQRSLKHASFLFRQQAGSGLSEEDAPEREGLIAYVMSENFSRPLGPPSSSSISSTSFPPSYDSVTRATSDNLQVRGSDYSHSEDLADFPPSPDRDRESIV

Compound | IC50 (NaV1.5) [nM] | IC50 (NaV1.7) [nM] | IC50 (hNaV1.7) [nM]
CC(C)c1cccc(-c2cn(C)c3cc(C(=O)NS(C)(=O)=O)ccc23)c1 [Example 16, 3-(3-Isopropylphenyl)-1-methyl-N-(methylsulfonyl)-1H-indole-6-carboxamide] | > 30000 | 427 | 217
CCc1cccc(-c2cn(C)c3cc(C(=O)NS(C)(=O)=O)ccc23)c1 [Example 17, 3-(3-Ethylphenyl)-1-methyl-N-(methylsulfonyl)-1H-indole-6-carboxamide] | > 30000 | 220 | 440
Cn1cc(-c2ccc(C(F)(F)F)cc2)c2ccc(C(=O)NS(=O)(=O)C3CC3)cc21 [Example 18, N-(cyclopropylsulfonyl)-1-methyl-3-(4-(trifluoromethyl)phenyl)-1H-indole-6-carboxamide] | 8720 | 109 | 77
Cn1cc(-c2ccc(C(F)(F)F)cc2)c2ccc(C(=O)NS(=O)(=O)C(F)(F)F)cc21 [Example 19, 1-Methyl-3-(4-(trifluoromethyl)phenyl)-N-((trifluoromethyl)sulfonyl)-1H-indole-6-carboxamide] | 7480 | 812 | 1080
Cn1cc(-c2ccc(C(F)(F)F)cc2)c2ccc(C(=O)NS(=O)(=O)c3cccs3)cc21 [Example 20, 1-Methyl-N-(thiophen-2-ylsulfonyl)-3-(4-(trifluoromethyl)phenyl)-1H-indole-6-carboxamide] | 3860 | 419 | 361
Cn1cc(-c2ccc(C(F)(F)F)cc2)c2ccc(C(=O)NS(=O)(=O)c3ccc(F)c(F)c3)cc21 [Example 21, N-((3,4-difluorophenyl)sulfonyl)-1-methyl-3-(4-(trifluoromethyl)phenyl)-1H-indole-6-carboxamide] | 18100 | > 30000 | > 30000
CC(C)COc1ccc(-c2cn(C)c3cc(C(=O)NS(C)(=O)=O)ccc23)cn1 [Example 23, 3-(6-Isobutoxypyridin-3-yl)-1-methyl-N-(methylsulfonyl)-1H-indole-6-carboxamide] | > 30000 | 183 | 468
CC(C)COc1ncc(-c2cn(C)c3cc(C(=O)NS(=O)(=O)C4CC4)ccc23)cc1Cl [Example 24, 3-(5-Chloro-6-isobutoxypyridin-3-yl)-N-(cyclopropylsulfonyl)-1-methyl-1H-indole-6-carboxamide] | 12000 | 294 | 22
CC(C)COc1ncc(-c2cn(C(C)C)c3cc(C(=O)NS(C)(=O)=O)ccc23)cc1Cl [Example 29, 3-(5-Chloro-6-isobutoxypyridin-3-yl)-1-isopropyl-N-(methylsulfonyl)-1H-indole-6-carboxamide] | 1490 | 703 | 89
Cn1cc(-c2ccc(C(F)F)cc2)c2ccc(C(=O)NS(C)(=O)=O)cc21 [Example 30, 3-(4-(Difluoromethyl)phenyl)-1-methyl-N-(methylsulfonyl)-1H-indole-6-carboxamide] | > 30000 | 262 | 1010
Cn1cc(-c2ccc(C(F)F)cc2)c2ccc(C(=O)NS(=O)(=O)C3CC3)cc21 [Example 31, N-(cyclopropylsulfonyl)-3-(4-(difluoromethyl)phenyl)-1-methyl-1H-indole-6-carboxamide] | > 30000 | 69 | 321
Cn1cc(-c2cnc(OCC3CC3)c(Cl)c2)c2ccc(C(=O)NS(C)(=O)=O)cc21 [Example 34, 3-(5-Chloro-6-(cyclopropylmethoxy)pyridin-3-yl)-1-methyl-N-(methylsulfonyl)-1H-indole-6-carboxamide] | 8370 | 189 | 270
Cn1cc(-c2cnc(OCC3CC3)c(Cl)c2)c2ccc(C(=O)NS(=O)(=O)C3CC3)cc21 [Example 35, 3-(5-Chloro-6-(cyclopropylmethoxy)pyridin-3-yl)-N-(cyclopropylsulfonyl)-1-methyl-1H-indole-6-carboxamide] | 15100 | 86 | 52
